From ChEMBL document CHEMBL3885861, “Open TG-GATES”

Organism: Rattus norvegicus
Test: Open TG-GATES - Regimen: Single
Type: toxicity, organism-based, Sprague-Dawley
Parameters: regimen Single, gender Male, age 6 weeks
Conditions: in vivo, po, route gavage; for gamma-GTP / ALP / ALT / AST / BUN / CRE / Ca / Cl / DBIL / GLC / IP / LDH / Na / PL / RALB / TBIL / TC / TG / TP: tissue Plasma; for APTT / Bas / Eos / Fbg / Hb / Ht / Lym / MCH / MCHC / MCV / Mono / Neu / PT / Plat / RBC / Ret / WBC: tissue Blood; for KIDNEY_L / KIDNEY_R / KIDNEY_TOTAL: tissue Kidney; for LIVER: tissue Liver

CC(=O)N1CCN(c2ccc(OCC3COC(Cn4ccnc4)(c4ccc(Cl)cc4Cl)O3)cc2)CC1 (stereo not given) [KETOCONAZOLE]
gamma-GTP (0 mg/kg, 24 h, dose level Control): 1.2 IU/L | TERMINAL_BW (10 mg/kg, 3 h, dose level Low): 205.2 g | APTT (10 mg/kg, 3 h, dose level Low): 20.8 s | Bas (10 mg/kg, 3 h, dose level Low): 0% | Eos (10 mg/kg, 3 h, dose level Low): 0.8% | Fbg (10 mg/kg, 3 h, dose level Low): 286.4 mg/dL | Hb (10 mg/kg, 3 h, dose level Low): 12.9 g/dL | Ht (10 mg/kg, 3 h, dose level Low): 38.9% | Lym (10 mg/kg, 3 h, dose level Low): 79.2% | MCH (10 mg/kg, 3 h, dose level Low): 21.8 pg | MCHC (10 mg/kg, 3 h, dose level Low): 33.1% | MCV (10 mg/kg, 3 h, dose level Low): 66.1 fL | Mono (10 mg/kg, 3 h, dose level Low): 2% | Neu (10 mg/kg, 3 h, dose level Low): 17.2% | PT (10 mg/kg, 3 h, dose level Low): 16.9 s | Plat (10 mg/kg, 3 h, dose level Low): 122.3 x10_4/uL | RBC (10 mg/kg, 3 h, dose level Low): 590.2 x10_4/ul | Ret (10 mg/kg, 3 h, dose level Low): 8.5% | WBC (10 mg/kg, 3 h, dose level Low): 81.1 x10_2/uL | KIDNEY_L (10 mg/kg, 3 h, dose level Low): 1 g | KIDNEY_R (10 mg/kg, 3 h, dose level Low): 1 g | KIDNEY_TOTAL (10 mg/kg, 3 h, dose level Low): 2 g | LIVER (10 mg/kg, 3 h, dose level Low): 9.7 g | ALP (10 mg/kg, 3 h, dose level Low): 1809.4 IU/L | ALT (10 mg/kg, 3 h, dose level Low): 44.2 IU/L | AST (10 mg/kg, 3 h, dose level Low): 74.2 IU/L | BUN (10 mg/kg, 3 h, dose level Low): 12.6 mg/dL | CRE (10 mg/kg, 3 h, dose level Low): 0.2 mg/dL | Ca (10 mg/kg, 3 h, dose level Low): 10.8 mg/dL | Cl (10 mg/kg, 3 h, dose level Low): 105.4 meq/L | DBIL (10 mg/kg, 3 h, dose level Low): 0 mg/dL | GLC (10 mg/kg, 3 h, dose level Low): 183.6 mg/dL | IP (10 mg/kg, 3 h, dose level Low): 7.7 mg/dL | LDH (10 mg/kg, 3 h, dose level Low): 214.6 IU/L | Na (10 mg/kg, 3 h, dose level Low): 140.8 meq/L | PL (10 mg/kg, 3 h, dose level Low): 138.4 mg/dL | RALB (10 mg/kg, 3 h, dose level Low): 2.9 g/dL | TBIL (10 mg/kg, 3 h, dose level Low): 0.014 mg/dL | TC (10 mg/kg, 3 h, dose level Low): 76.6 mg/dL | TG (10 mg/kg, 3 h, dose level Low): 69.8 mg/dL | TP (10 mg/kg, 3 h, dose level Low): 5.3 g/dL | gamma-GTP (10 mg/kg, 3 h, dose level Low): 1.2 IU/L | TERMINAL_BW (10 mg/kg, 6 h, dose level Low): 202.4 g | APTT (10 mg/kg, 6 h, dose level Low): 20.6 s | Bas (10 mg/kg, 6 h, dose level Low): 0% | Eos (10 mg/kg, 6 h, dose level Low): 0.6% | Fbg (10 mg/kg, 6 h, dose level Low): 294 mg/dL | Hb (10 mg/kg, 6 h, dose level Low): 13.2 g/dL | Ht (10 mg/kg, 6 h, dose level Low): 39.7% | Lym (10 mg/kg, 6 h, dose level Low): 78.8% | MCH (10 mg/kg, 6 h, dose level Low): 21 pg | MCHC (10 mg/kg, 6 h, dose level Low): 33.2% | MCV (10 mg/kg, 6 h, dose level Low): 63.2 fL | Mono (10 mg/kg, 6 h, dose level Low): 1.4% | Neu (10 mg/kg, 6 h, dose level Low): 18.2% | PT (10 mg/kg, 6 h, dose level Low): 16.5 s | Plat (10 mg/kg, 6 h, dose level Low): 134.3 x10_4/uL | RBC (10 mg/kg, 6 h, dose level Low): 628.6 x10_4/ul | Ret (10 mg/kg, 6 h, dose level Low): 8.4% | WBC (10 mg/kg, 6 h, dose level Low): 66.2 x10_2/uL | KIDNEY_L (10 mg/kg, 6 h, dose level Low): 0.9 g | KIDNEY_R (10 mg/kg, 6 h, dose level Low): 0.9 g | KIDNEY_TOTAL (10 mg/kg, 6 h, dose level Low): 1.8 g | LIVER (10 mg/kg, 6 h, dose level Low): 8.6 g | ALP (10 mg/kg, 6 h, dose level Low): 1453.2 IU/L | AST (10 mg/kg, 6 h, dose level Low): 72.2 IU/L | BUN (10 mg/kg, 6 h, dose level Low): 11 mg/dL | CRE (10 mg/kg, 6 h, dose level Low): 0.2 mg/dL | Ca (10 mg/kg, 6 h, dose level Low): 11 mg/dL | Cl (10 mg/kg, 6 h, dose level Low): 105.8 meq/L | DBIL (10 mg/kg, 6 h, dose level Low): 0.004 mg/dL | GLC (10 mg/kg, 6 h, dose level Low): 172.8 mg/dL | IP (10 mg/kg, 6 h, dose level Low): 9.2 mg/dL | LDH (10 mg/kg, 6 h, dose level Low): 238.6 IU/L | Na (10 mg/kg, 6 h, dose level Low): 142.2 meq/L | PL (10 mg/kg, 6 h, dose level Low): 146.6 mg/dL | RALB (10 mg/kg, 6 h, dose level Low): 3.1 g/dL | TBIL (10 mg/kg, 6 h, dose level Low): 0.028 mg/dL | TC (10 mg/kg, 6 h, dose level Low): 81.4 mg/dL | TG (10 mg/kg, 6 h, dose level Low): 57 mg/dL | TP (10 mg/kg, 6 h, dose level Low): 5.5 g/dL | gamma-GTP (10 mg/kg, 6 h, dose level Low): 1 IU/L | TERMINAL_BW (10 mg/kg, 9 h, dose level Low): 202 g | APTT (10 mg/kg, 9 h, dose level Low): 21.2 s | Bas (10 mg/kg, 9 h, dose level Low): 0% | Eos (10 mg/kg, 9 h, dose level Low): 0.6% | Fbg (10 mg/kg, 9 h, dose level Low): 303 mg/dL | Hb (10 mg/kg, 9 h, dose level Low): 12.8 g/dL | Ht (10 mg/kg, 9 h, dose level Low): 38.6% | Lym (10 mg/kg, 9 h, dose level Low): 79.8% | MCH (10 mg/kg, 9 h, dose level Low): 20.9 pg | MCHC (10 mg/kg, 9 h, dose level Low): 33.3% | MCV (10 mg/kg, 9 h, dose level Low): 62.8 fL | Mono (10 mg/kg, 9 h, dose level Low): 2% | Neu (10 mg/kg, 9 h, dose level Low): 17% | PT (10 mg/kg, 9 h, dose level Low): 16.2 s | Plat (10 mg/kg, 9 h, dose level Low): 120.8 x10_4/uL | RBC (10 mg/kg, 9 h, dose level Low): 614.6 x10_4/ul | Ret (10 mg/kg, 9 h, dose level Low): 8.5% | WBC (10 mg/kg, 9 h, dose level Low): 64.8 x10_2/uL | KIDNEY_L (10 mg/kg, 9 h, dose level Low): 1 g | KIDNEY_R (10 mg/kg, 9 h, dose level Low): 1 g | KIDNEY_TOTAL (10 mg/kg, 9 h, dose level Low): 1.9 g | LIVER (10 mg/kg, 9 h, dose level Low): 8.9 g | ALP (10 mg/kg, 9 h, dose level Low): 1290.2 IU/L | ALT (10 mg/kg, 9 h, dose level Low): 33 IU/L | AST (10 mg/kg, 9 h, dose level Low): 63.8 IU/L | BUN (10 mg/kg, 9 h, dose level Low): 11.2 mg/dL | CRE (10 mg/kg, 9 h, dose level Low): 0.1 mg/dL | Ca (10 mg/kg, 9 h, dose level Low): 10.6 mg/dL | Cl (10 mg/kg, 9 h, dose level Low): 104.8 meq/L | DBIL (10 mg/kg, 9 h, dose level Low): 0 mg/dL | GLC (10 mg/kg, 9 h, dose level Low): 182.4 mg/dL | IP (10 mg/kg, 9 h, dose level Low): 9.8 mg/dL | LDH (10 mg/kg, 9 h, dose level Low): 211.4 IU/L | Na (10 mg/kg, 9 h, dose level Low): 140.6 meq/L | PL (10 mg/kg, 9 h, dose level Low): 137.8 mg/dL | RALB (10 mg/kg, 9 h, dose level Low): 3.1 g/dL | TBIL (10 mg/kg, 9 h, dose level Low): 0.018 mg/dL | TC (10 mg/kg, 9 h, dose level Low): 80.2 mg/dL | TG (10 mg/kg, 9 h, dose level Low): 52.8 mg/dL | TP (10 mg/kg, 9 h, dose level Low): 5.6 g/dL | gamma-GTP (10 mg/kg, 9 h, dose level Low): 1.2 IU/L | TERMINAL_BW (10 mg/kg, 24 h, dose level Low): 212.3 g | APTT (10 mg/kg, 24 h, dose level Low): 20.9 s | Bas (10 mg/kg, 24 h, dose level Low): 0% | Eos (10 mg/kg, 24 h, dose level Low): 1% | Fbg (10 mg/kg, 24 h, dose level Low): 300 mg/dL | Hb (10 mg/kg, 24 h, dose level Low): 13 g/dL | Ht (10 mg/kg, 24 h, dose level Low): 38.5% | Lym (10 mg/kg, 24 h, dose level Low): 81% | MCH (10 mg/kg, 24 h, dose level Low): 21.3 pg | MCV (10 mg/kg, 24 h, dose level Low): 63.4 fL | Mono (10 mg/kg, 24 h, dose level Low): 1.8% | Neu (10 mg/kg, 24 h, dose level Low): 15.6% | PT (10 mg/kg, 24 h, dose level Low): 16.5 s | Plat (10 mg/kg, 24 h, dose level Low): 129.6 x10_4/uL | RBC (10 mg/kg, 24 h, dose level Low): 608 x10_4/ul | Ret (10 mg/kg, 24 h, dose level Low): 7.8% | WBC (10 mg/kg, 24 h, dose level Low): 74 x10_2/uL | KIDNEY_L (10 mg/kg, 24 h, dose level Low): 0.9 g | KIDNEY_R (10 mg/kg, 24 h, dose level Low): 0.9 g | KIDNEY_TOTAL (10 mg/kg, 24 h, dose level Low): 1.9 g | LIVER (10 mg/kg, 24 h, dose level Low): 10 g | ALP (10 mg/kg, 24 h, dose level Low): 1553.2 IU/L | ALT (10 mg/kg, 24 h, dose level Low): 44.2 IU/L | AST (10 mg/kg, 24 h, dose level Low): 71 IU/L | BUN (10 mg/kg, 24 h, dose level Low): 16 mg/dL | CRE (10 mg/kg, 24 h, dose level Low): 0.2 mg/dL | Ca (10 mg/kg, 24 h, dose level Low): 10.7 mg/dL | Cl (10 mg/kg, 24 h, dose level Low): 107.2 meq/L | DBIL (10 mg/kg, 24 h, dose level Low): 0 mg/dL | GLC (10 mg/kg, 24 h, dose level Low): 176.6 mg/dL | IP (10 mg/kg, 24 h, dose level Low): 7.1 mg/dL | LDH (10 mg/kg, 24 h, dose level Low): 209 IU/L | Na (10 mg/kg, 24 h, dose level Low): 141.6 meq/L | PL (10 mg/kg, 24 h, dose level Low): 140 mg/dL | RALB (10 mg/kg, 24 h, dose level Low): 3.1 g/dL | TBIL (10 mg/kg, 24 h, dose level Low): 0.006 mg/dL | TC (10 mg/kg, 24 h, dose level Low): 74 mg/dL
